Among the test systems are IGROV1 ovarian; SK-MEL-5 melanoma; U251 CNS; HOP-62 NSCLC; NCI-H226 lung; T-47D breast; MDA-MB-231 breast; OVCAR-3 ovarian; SF-268 CNS; HS 578T breast.
What all share (test): NCI tumour cell line growth inhibition, 48 h

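Five concentrations, 48 hours, 96-well plates. GI50: concentration for 50% inhibition of growth. At the TGI there is no net growth.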

`CC/C(=C(/c1ccc(O)cc1)c1ccc(OCCNC)cc1)c1ccccc1`: the GI50 is 2.77 µM with IGROV1 ovarian; 1.67 µM in the test on SK-MEL-5 melanoma; 1.54 µM with U251 CNS; 2.03 µM in the test on HOP-62 NSCLC; 5.03 µM with NCI-H226 lung; 1.34 µM with T-47D breast. Moreover, the GI50 with MDA-MB-231 breast was 1.39 µM; in the test on OVCAR-3 ovarian, 2.1 µM; with SF-268 CNS it was 2.48 µM; in the test on HS 578T breast, 1.87 µM. For the same compound, the TGI was 7.66 µM in the test with IGROV1 ovarian; 3.09 µM with SK-MEL-5 melanoma; 2.93 µM with U251 CNS; 4.44 µM in the test with HOP-62 NSCLC; 20.3 µM with NCI-H226 lung; 4.68 µM in the test on T-47D breast. In addition, the TGI in the test with MDA-MB-231 breast came to 3.09 µM; with OVCAR-3 ovarian, 4.52 µM; in the test with SF-268 CNS, 7.27 µM; with HS 578T breast it was 5.16 µM.
Take `COc1ccc(-c2cnnc3c(-c4cccc(C(F)(F)F)c4)cnn23)cc1`: the GI50 with IGROV1 ovarian is 1.97 µM; in the test with SK-MEL-5 melanoma, 3.85 µM; in the test with U251 CNS it was 3.61 µM; in the test on HOP-62 NSCLC, 2.72 µM; in the test with NCI-H226 lung, 2.64 µM; in the test with T-47D breast, 6.37 µM. For the same compound, the GI50 in the test with MDA-MB-231 breast was 3.55 µM; in the test with OVCAR-3 ovarian, 2.55 µM; in the test with SF-268 CNS, 1.78 µM; in the test on HS 578T breast it was 4.11 µM. Moreover, the TGI is > 100 µM in the test with IGROV1 ovarian; > 100 µM in the test on SK-MEL-5 melanoma; > 100 µM in the test with U251 CNS; 13.1 µM in the test with HOP-62 NSCLC; > 100 µM with NCI-H226 lung; > 100 µM in the test with T-47D breast. Further, the TGI in the test on MDA-MB-231 breast was > 100 µM; with OVCAR-3 ovarian it was 6.45 µM; with SF-268 CNS, 7.4 µM; in the test on HS 578T breast, > 100 µM.
Take `C=CC(=O)N1CC2(CCN(c3nc(OC4CCN(CCCOC)CC4)nc4c(OCC(F)(F)F)c(-c5c(C)ccc6[nH]ncc56)c(C5CC5)cc34)CC2)C1`: the GI50 in the test on IGROV1 ovarian is 6.88 µM; with SK-MEL-5 melanoma it was 2.14 µM; in the test with U251 CNS it was 2.81 µM; in the test on NCI-H226 lung, 3.66 µM; with T-47D breast, 2.71 µM; in the test with MDA-MB-231 breast, 1.98 µM. Also, the GI50 in the test on OVCAR-3 ovarian was 2.37 µM; with SF-268 CNS, 3.75 µM; in the test on HS 578T breast, 2.91 µM. The TGI was determined as 21.3 µM in the test with IGROV1 ovarian; 4.93 µM in the test with SK-MEL-5 melanoma; 10 µM with U251 CNS; 19.6 µM with HOP-62 NSCLC; 16.5 µM in the test on NCI-H226 lung; 9.46 µM in the test on T-47D breast. Also, the TGI was determined as 3.94 µM in the test with MDA-MB-231 breast, 5.28 µM in the test with OVCAR-3 ovarian, 13.6 µM in the test on SF-268 CNS and 13.3 µM in the test on HS 578T breast.
For the compound `COC(=O)[C@]12CC[C@@H](C)[C@H](C)[C@@H]1C1=CC[C@@H]3[C@@]4(C)C/C(=N\O)[C@H](O)[C@@]5(C)COC(=C45)C[C@@]3(C)[C@]1(C)CC2`, the GI50 was 8.87 µM in the test with IGROV1 ovarian; 13.1 µM in the test on SK-MEL-5 melanoma; 3.02 µM in the test on U251 CNS; 12.3 µM in the test with HOP-62 NSCLC; 14.8 µM with NCI-H226 lung; 9.3 µM with T-47D breast. In addition, the GI50 is 3.84 µM in the test with MDA-MB-231 breast, 5.47 µM in the test with OVCAR-3 ovarian, 12.6 µM in the test with SF-268 CNS and 11.4 µM in the test on HS 578T breast. Further, the TGI in the test with IGROV1 ovarian is 25.1 µM; in the test with SK-MEL-5 melanoma, 25.8 µM; with U251 CNS it was 9.79 µM; with HOP-62 NSCLC it was 26.3 µM; in the test on NCI-H226 lung it was 33.5 µM; in the test with T-47D breast, 25.7 µM. For the same compound, the TGI with MDA-MB-231 breast is 16 µM; with OVCAR-3 ovarian, 18.2 µM; with SF-268 CNS, 30 µM; in the test with HS 578T breast it was 32.5 µM.
For the compound `Nc1nc(Cl)c2ncn(Cc3ccc(C45CC6CC(CC(C6)C4)C5)c(O)c3)c2n1`, the GI50 in the test with IGROV1 ovarian was 4.72 µM; with SK-MEL-5 melanoma, 0.558 µM; in the test with U251 CNS, 3.09 µM; with HOP-62 NSCLC, 1.85 µM; in the test with NCI-H226 lung, 12 µM; in the test on T-47D breast, 3.75 µM. Further, the GI50 in the test with MDA-MB-231 breast is 1.85 µM; in the test with OVCAR-3 ovarian it was 2.32 µM; in the test with SF-268 CNS, 5.34 µM; with HS 578T breast, 2.29 µM. Besides, the TGI in the test on IGROV1 ovarian worked out at 21.9 µM; in the test on SK-MEL-5 melanoma it was 11 µM; in the test on U251 CNS, 12.9 µM; in the test with HOP-62 NSCLC it was 3.77 µM; in the test on NCI-H226 lung, 42.9 µM; in the test on T-47D breast, 24.5 µM. The TGI in the test on MDA-MB-231 breast was 11.4 µM; with OVCAR-3 ovarian, 11.1 µM; in the test with SF-268 CNS, 21.4 µM; in the test on HS 578T breast, 12.1 µM.
Regarding `COc1cc(C2NC(=O)c3ccccc3N2)ccc1OCCCCCOc1c(OC)cc(C2=NOC(c3cc(OC)c(OC)c(OC)c3)C2)cc1OC` (stereo not drawn), the GI50 was 0.601 µM in the test on IGROV1 ovarian; 0.142 µM in the test with SK-MEL-5 melanoma; 19.6 µM with U251 CNS; 17.3 µM in the test on HOP-62 NSCLC; 0.239 µM with T-47D breast; 14.8 µM in the test on MDA-MB-231 breast. Moreover, the GI50 with OVCAR-3 ovarian is 12.6 µM; with SF-268 CNS, 20.8 µM; with HS 578T breast, 15.7 µM. Also, the TGI in the test on IGROV1 ovarian was > 71 µM; in the test with SK-MEL-5 melanoma it was 0.546 µM; with U251 CNS, > 100 µM; in the test on HOP-62 NSCLC, 61.3 µM; in the test with NCI-H226 lung it was > 100 µM; in the test with T-47D breast, > 100 µM. The TGI in the test on MDA-MB-231 breast is > 75.4 µM; in the test on OVCAR-3 ovarian, 44 µM; with SF-268 CNS, > 100 µM; in the test with HS 578T breast, > 82 µM.
In the case of `CC[CH2][Sn]([CH2]CC)([O]C(=O)c1cccnc1SC)[O][Sn]([CH2]CC)([CH2]CC)[O]C(=O)c1cccnc1SC`, the GI50 was 1.26 µM with IGROV1 ovarian; 0.898 µM with SK-MEL-5 melanoma; 0.25 µM in the test on U251 CNS; 2.32 µM with HOP-62 NSCLC; 0.614 µM in the test on NCI-H226 lung; 0.287 µM with T-47D breast. Further, the GI50 was 1.34 µM in the test with MDA-MB-231 breast, 0.583 µM in the test on OVCAR-3 ovarian, 0.33 µM in the test on SF-268 CNS and 1.5 µM in the test with HS 578T breast. Besides, the TGI in the test on IGROV1 ovarian was found to be 3.79 µM; in the test on SK-MEL-5 melanoma, 3.26 µM; in the test with U251 CNS, 0.592 µM; in the test with HOP-62 NSCLC, 5.31 µM; with NCI-H226 lung it was 1.79 µM; in the test with T-47D breast it was 1.52 µM. The TGI with MDA-MB-231 breast amounted to 2.76 µM; in the test on OVCAR-3 ovarian, 1.85 µM; in the test on SF-268 CNS it was 0.969 µM; with HS 578T breast, 6.36 µM.

These data come from PubChem BioAssay (NCI).
